In ChEMBL document CHEMBL1201862, “PubChem BioAssay data set” (2004):
Calls of active or inactive are those of the source.

Experiments:
[1] = biological target: T1, Neuropeptide Y receptor type 1 (Homo sapiens, UniProt P25929); assay: Fluorescence-based dose response cell-based high-throughput screening assay for agonists of NPY-Y1. [Related pubchem assays: 1697 (Screening assay (NPY-Y1 agonists).), 1359 (Screening assay (NPY-Y2 potentiators or agonists).), 1304 (Screening assay (NPY-Y1 potentiators or agonists).), 1704 (Screening assay (CNGC inhibitors).), 1791 (Summary AID.)]; assay type: functional
T1 sequence (P25929 whole entry): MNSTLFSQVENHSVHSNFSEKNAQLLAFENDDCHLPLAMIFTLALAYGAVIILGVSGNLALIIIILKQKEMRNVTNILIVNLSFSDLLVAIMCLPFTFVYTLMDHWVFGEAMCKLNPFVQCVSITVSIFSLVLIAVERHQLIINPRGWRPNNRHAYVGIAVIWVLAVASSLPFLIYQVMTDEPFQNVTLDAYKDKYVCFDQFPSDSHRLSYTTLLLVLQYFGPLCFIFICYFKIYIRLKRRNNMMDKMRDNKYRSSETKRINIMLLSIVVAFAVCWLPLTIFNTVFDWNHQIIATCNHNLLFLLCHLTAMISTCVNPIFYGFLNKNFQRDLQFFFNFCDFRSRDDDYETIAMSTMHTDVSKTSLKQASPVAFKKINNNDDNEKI

[2] = test system: HEK293; assay: Fluorescence-based counterscreen for potentiators or agonists of NPY-Y1: cell-based high-throughput dose response assay for inhibitors of cyclic nucleotide gated ion channel (CNGC) activity. In this assay, the parental HEK293 cell line transfected with a cyclic-nucleotide gated ion channel (CNGC)-based cAMP sensor is used to measure inhibition of isoproterenol-induced CNGC …; assay type: functional; conditions: Homo sapiens
[3] = biological target: T2, Neuropeptide Y receptor type 2 (Homo sapiens, UniProt P49146); assay: Fluorescence-based counterscreen for agonists of NPY-Y1: cell-based high-throughput dose response assay for agonists of NPY-Y2.; assay type: functional
T2 sequence (P49146 whole entry): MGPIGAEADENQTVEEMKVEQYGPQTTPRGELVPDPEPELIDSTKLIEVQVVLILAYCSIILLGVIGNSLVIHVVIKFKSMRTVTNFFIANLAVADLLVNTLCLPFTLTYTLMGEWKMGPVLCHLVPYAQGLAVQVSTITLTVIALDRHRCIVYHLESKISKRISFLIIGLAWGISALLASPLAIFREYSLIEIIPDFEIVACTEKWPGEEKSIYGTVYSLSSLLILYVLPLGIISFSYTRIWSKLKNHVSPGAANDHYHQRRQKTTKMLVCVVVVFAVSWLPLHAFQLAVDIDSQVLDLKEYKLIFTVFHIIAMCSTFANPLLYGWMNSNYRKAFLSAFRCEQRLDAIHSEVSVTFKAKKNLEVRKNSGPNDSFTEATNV

[4] = test system: Streptococcus; assay: Luminescence Microorganism-Based Dose Response Follow up to Identify Compounds Cytotoxic to Streptococcus. [Related pubchem assays: 1677 (Project Summary), 1915, 1914, 1902 (Retest at Dose), 1900 (Counter Screen), 1662 (Primary HTS)]; assay type: functional, organism-based
[5] = biological target: Melanin-concentrating hormone receptor 1 (Homo sapiens, UniProt Q99705); assay: Fluorescence-based counterscreen for antagonists of the G-protein coupled receptor 7 (GPR7): cell-based high throughput dose response assay to identify antagonists of the melanin-concentrating hormone receptor 1 (MCHR1).; assay type: functional
Sequence of Melanin-concentrating hormone receptor 1 (Q99705 whole entry): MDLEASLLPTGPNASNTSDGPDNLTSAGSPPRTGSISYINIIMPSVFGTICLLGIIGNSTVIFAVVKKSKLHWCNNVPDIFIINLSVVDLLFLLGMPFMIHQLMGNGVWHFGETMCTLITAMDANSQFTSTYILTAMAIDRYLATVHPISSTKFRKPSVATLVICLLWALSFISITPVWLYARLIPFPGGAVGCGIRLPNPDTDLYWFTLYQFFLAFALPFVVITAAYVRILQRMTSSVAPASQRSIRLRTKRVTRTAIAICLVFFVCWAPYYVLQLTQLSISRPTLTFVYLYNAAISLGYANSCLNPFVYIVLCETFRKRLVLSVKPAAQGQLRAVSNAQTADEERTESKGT

[6] = biological target: Neuropeptides B/W receptor type 1 (Homo sapiens, UniProt P48145); assay: Fluorescence-based dose response cell-based high throughput screening assay to identify antagonists of the G-protein coupled receptor 7 (GPR7). [Related pubchem assays: 1952 (Screening assay (GPR7 antagonists).), 1880 (Summary AID.)]; assay type: functional
Sequence of Neuropeptides B/W receptor type 1 (P48145 whole entry): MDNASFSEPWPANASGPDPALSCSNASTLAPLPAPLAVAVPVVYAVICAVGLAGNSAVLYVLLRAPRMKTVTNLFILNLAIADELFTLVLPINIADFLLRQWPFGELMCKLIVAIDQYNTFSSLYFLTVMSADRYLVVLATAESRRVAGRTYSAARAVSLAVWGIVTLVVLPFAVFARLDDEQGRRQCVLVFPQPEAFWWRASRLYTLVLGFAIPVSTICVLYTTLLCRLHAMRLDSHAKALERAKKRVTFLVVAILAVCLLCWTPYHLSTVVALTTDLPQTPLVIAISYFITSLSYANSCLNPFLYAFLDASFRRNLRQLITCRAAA

[7] = biological target: T3, Alkaline phosphatase, tissue-nonspecific isozyme (Homo sapiens, UniProt P05186); assay: TNAP enzyme inhibition by screening hits, dose response, selectivity assay for mouse IAP inhibitor project, biochemical, human TNAP, uHTS hits (AID 488906); assay type: functional
T3 sequence (P05186 whole entry): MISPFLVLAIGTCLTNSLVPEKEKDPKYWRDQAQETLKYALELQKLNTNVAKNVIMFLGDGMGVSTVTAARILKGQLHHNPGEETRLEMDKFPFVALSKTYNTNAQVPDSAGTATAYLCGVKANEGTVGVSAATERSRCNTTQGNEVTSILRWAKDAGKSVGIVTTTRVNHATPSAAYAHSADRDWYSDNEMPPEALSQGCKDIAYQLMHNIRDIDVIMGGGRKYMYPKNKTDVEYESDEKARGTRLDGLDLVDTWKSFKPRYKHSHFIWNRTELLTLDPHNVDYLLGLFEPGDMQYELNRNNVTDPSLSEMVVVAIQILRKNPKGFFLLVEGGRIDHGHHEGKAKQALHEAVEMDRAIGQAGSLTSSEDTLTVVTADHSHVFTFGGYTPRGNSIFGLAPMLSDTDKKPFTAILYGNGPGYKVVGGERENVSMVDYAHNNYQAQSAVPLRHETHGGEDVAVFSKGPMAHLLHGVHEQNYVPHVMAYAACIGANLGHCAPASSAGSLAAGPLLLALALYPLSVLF

[8] = biological target: T3, Alkaline phosphatase, tissue-nonspecific isozyme
[9] = biological target: Intestinal-type alkaline phosphatase (Mus musculus, UniProt P24822); assay: PubChem AID 488785; assay type: functional
Sequence of Intestinal-type alkaline phosphatase (Mus musculus, UniProt P24822) (P24822 whole entry): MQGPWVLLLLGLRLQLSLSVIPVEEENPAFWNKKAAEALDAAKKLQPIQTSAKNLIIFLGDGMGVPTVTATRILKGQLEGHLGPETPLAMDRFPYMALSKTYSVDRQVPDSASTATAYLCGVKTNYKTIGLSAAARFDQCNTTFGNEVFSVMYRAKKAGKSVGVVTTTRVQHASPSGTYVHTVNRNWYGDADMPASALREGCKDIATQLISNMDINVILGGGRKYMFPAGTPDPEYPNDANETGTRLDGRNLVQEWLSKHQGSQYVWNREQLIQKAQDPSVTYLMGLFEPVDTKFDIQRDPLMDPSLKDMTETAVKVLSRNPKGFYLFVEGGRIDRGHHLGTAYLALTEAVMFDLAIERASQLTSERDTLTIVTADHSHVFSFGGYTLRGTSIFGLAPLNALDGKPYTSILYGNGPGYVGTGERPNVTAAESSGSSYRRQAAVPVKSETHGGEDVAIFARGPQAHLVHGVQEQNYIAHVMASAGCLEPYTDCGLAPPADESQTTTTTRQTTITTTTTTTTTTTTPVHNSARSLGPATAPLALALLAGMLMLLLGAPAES

[10] = biological target: Intestinal-type alkaline phosphatase (Homo sapiens, UniProt P09923); assay: inhibition of human intestinal alkaline phosphatase – biochemical, dose response (AID 488876); assay type: functional
Sequence of Intestinal-type alkaline phosphatase (Homo sapiens, UniProt P09923) (P09923 whole entry): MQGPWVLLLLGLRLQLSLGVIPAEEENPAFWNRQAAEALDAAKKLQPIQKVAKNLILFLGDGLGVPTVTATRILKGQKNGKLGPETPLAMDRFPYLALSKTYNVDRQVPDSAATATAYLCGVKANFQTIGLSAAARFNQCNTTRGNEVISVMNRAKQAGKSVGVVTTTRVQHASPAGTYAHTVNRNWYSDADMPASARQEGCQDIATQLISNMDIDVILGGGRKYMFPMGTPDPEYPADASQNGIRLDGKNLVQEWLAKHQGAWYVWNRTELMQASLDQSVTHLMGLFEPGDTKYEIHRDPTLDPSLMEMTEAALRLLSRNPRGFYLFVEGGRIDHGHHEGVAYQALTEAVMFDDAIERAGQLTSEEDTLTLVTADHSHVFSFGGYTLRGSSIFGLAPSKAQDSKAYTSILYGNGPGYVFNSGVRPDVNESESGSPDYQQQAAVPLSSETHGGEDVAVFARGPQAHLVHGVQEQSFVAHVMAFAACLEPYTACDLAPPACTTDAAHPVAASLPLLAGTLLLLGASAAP

[11] = biological target: T4, Short transient receptor potential channel 4 (Mus musculus, UniProt Q9QUQ5); assay: mouse TRPC4 channel inhibitors, dose response, cell-based, HEK293 TRPC4/mu-opioid, Fluo-4 calcium (AID 434942); assay type: functional;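 note: potency of inhibitors blocking the TRPC4 calcium response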
T4 sequence (Q9QUQ5 whole entry): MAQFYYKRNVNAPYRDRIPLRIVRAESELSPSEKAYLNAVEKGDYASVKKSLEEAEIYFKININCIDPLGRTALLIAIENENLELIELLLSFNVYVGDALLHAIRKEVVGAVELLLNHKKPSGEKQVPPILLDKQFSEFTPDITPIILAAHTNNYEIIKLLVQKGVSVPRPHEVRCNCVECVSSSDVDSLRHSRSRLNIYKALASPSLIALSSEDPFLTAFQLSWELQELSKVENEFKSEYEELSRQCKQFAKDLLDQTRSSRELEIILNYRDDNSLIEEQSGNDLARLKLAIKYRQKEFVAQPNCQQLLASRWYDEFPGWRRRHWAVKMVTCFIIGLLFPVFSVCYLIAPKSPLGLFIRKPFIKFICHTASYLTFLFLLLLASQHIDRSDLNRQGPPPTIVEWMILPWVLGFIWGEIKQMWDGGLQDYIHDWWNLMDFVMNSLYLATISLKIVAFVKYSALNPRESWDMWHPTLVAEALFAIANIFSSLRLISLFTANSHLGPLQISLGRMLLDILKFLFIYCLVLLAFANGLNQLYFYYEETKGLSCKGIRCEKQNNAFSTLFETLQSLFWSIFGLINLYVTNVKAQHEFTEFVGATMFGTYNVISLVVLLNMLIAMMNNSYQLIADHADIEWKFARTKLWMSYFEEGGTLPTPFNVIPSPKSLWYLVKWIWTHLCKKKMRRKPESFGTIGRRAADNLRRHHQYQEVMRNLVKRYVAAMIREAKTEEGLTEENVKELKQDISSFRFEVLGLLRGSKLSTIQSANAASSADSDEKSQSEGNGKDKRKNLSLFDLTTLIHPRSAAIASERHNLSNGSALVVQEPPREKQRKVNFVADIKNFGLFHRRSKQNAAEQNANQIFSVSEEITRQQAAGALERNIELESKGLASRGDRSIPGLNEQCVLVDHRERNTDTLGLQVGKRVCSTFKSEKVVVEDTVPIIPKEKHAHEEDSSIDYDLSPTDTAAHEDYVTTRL

[12] = biological target: Phospholipase A2 (Homo sapiens, UniProt P04054); assay type: functional;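 note: confirmatory dose-response counterscreen on phospholipase A2, testing hits that came from an ultra-high-throughput screen for ATG4B inhibitors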
Sequence of Phospholipase A2 (P04054 whole entry): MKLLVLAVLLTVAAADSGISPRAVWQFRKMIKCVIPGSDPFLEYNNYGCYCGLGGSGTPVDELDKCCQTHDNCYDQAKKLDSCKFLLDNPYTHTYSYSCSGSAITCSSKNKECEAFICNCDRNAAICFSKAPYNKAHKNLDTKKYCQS

[13] = biological target: Cysteine protease ATG4B (Homo sapiens, UniProt Q9Y4P1); assay type: functional;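 note: Fluorescence-based dose-response confirmation assay measuring inhibition of ATG4B activity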
Sequence of Cysteine protease ATG4B (Q9Y4P1 whole entry): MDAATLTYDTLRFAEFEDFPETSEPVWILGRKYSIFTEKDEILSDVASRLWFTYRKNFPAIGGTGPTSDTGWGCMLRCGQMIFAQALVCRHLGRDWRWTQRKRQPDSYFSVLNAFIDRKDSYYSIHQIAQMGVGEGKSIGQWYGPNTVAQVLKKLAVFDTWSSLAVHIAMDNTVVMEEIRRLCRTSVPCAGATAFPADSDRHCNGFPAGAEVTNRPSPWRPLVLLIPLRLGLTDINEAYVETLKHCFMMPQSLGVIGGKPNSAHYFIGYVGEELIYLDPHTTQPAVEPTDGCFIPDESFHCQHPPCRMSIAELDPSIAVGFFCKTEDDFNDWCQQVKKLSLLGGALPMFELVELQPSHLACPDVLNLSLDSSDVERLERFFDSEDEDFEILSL

[14] = biological target: Genome polyprotein (dengue virus type 2, UniProt P29990); assay: Dengue-2 NS5 methyltransferase inhibitors, primary screen, biochemical, confirmation dose response (AID 588689); assay type: functional
Sequence of Genome polyprotein (P29990 2492-3391 limits assumed): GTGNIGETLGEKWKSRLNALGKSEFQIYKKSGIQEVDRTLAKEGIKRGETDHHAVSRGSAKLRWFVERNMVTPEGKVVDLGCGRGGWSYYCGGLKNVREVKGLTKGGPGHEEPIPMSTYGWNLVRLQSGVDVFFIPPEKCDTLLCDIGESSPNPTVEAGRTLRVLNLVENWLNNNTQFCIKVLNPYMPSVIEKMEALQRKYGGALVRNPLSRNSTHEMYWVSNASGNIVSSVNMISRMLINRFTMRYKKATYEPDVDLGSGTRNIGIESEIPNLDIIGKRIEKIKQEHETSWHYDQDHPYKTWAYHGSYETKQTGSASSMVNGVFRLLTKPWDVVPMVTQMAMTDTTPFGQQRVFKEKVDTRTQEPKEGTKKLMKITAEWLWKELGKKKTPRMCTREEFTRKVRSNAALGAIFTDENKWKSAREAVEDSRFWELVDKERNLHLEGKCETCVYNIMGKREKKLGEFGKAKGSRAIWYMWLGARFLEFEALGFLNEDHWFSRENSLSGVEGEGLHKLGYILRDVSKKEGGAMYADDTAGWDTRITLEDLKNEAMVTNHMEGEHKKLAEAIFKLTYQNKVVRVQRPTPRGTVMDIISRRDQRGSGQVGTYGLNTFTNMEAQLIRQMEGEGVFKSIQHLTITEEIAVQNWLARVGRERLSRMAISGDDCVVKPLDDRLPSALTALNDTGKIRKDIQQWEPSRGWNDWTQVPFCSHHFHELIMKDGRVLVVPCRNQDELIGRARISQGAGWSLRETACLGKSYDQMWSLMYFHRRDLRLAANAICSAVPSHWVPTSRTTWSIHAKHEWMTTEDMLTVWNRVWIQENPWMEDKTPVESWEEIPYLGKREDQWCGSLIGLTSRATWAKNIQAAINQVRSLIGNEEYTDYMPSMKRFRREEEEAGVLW

[15] = biological target: Polyadenylate-binding protein 1 (Homo sapiens, UniProt P11940); assay: PABP poly(A) RNA binding inhibitors, primary screen, biochemical, fluorescence polarization, uHTS (AID 2014)
Sequence of Polyadenylate-binding protein 1 (P11940 whole entry): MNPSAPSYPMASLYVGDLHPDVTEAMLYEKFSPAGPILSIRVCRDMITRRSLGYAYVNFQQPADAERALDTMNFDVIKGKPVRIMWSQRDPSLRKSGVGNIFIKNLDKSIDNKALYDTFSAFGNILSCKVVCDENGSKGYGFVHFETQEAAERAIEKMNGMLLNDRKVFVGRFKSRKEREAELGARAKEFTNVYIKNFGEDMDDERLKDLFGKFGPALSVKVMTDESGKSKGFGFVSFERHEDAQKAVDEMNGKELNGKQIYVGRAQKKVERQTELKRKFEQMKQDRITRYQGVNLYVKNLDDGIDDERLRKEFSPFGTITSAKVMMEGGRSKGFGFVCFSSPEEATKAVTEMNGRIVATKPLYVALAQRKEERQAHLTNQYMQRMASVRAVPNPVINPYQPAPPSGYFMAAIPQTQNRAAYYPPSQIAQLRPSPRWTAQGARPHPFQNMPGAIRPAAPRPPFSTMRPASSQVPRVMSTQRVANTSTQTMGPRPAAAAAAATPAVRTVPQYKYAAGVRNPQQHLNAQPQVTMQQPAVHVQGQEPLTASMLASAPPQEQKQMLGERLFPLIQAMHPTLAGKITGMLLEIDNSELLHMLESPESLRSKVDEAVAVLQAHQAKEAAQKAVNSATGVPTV

[16] = biological target: Eukaryotic translation initiation factor 4H (Homo sapiens, UniProt Q15056); assay: human eIF4H binding inhibitors, primary screen, translation initiation inhibitor project, biochemical, uHTS, fluorescence polarization (AID 2012)
[17] = biological target: Protein Tat (Human immunodeficiency virus type 1 group M subtype B (isolate HXB2)(HIV-1), UniProt P04608); assay type: functional;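 note: tat binding to TAR RNA read out by fluorescence polarization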
Sequence of Protein Tat (P04608 whole entry): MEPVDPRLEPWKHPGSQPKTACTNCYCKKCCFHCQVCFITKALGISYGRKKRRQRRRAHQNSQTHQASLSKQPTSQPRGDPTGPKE

[18] = NIH-3T3 fibroblast cytotoxicity, dose response, cytotoxicity control, cell-based, fluorescence, Alamar Blue, secondary assay (AID 2327); assay type: functional;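 note: NIH-3T3 mouse fibroblasts cultured with fluconazole at 8 µg/mL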
[19] = C. albicans growth with fluconazole, confirmation, fluorescence, retest (AID 2467); assay type: functional, cell-based

In the case of `CC(C)c1ccc2[nH]c(O)c(N=NC(=O)c3cccc(S(=O)(=O)Nc4cccc(Cl)c4)c3)c2c1`, the EC50 [1] is reported as > 35.4 µM (not active), the IC50 [2] is reported as > 35.4 µM (not active) and the EC50 [3] is reported as > 35.4 µM (not active).
For `O=C(c1ccc(Cl)cc1)n1c2ccccc2c2ccccc21`, the EC50 [4] was > 500 µM (not active).
For `Nc1c(C(=O)NCc2ccc3c(c2)OCO3)nnn1Cc1ccc(Br)cc1`, the IC50 [5] was > 43.8 µM (not active) and the IC50 [6] was > 43.8 µM (not active).
With `Cc1ccc(CN2C3CCCC2CC(NC(=S)NCc2ccccc2)C3)cc1` (centres undefined) the IC50 [7] was 91.3 µM (active), the EC50 [8] was 64.9 µM (not active) and the IC50 [9] was 5.23 µM (active). The IC50 [10] was > 100 µM (inactive), the EC50 [11] was 2.66 µM (active) and the IC50 [12] was 7.96 µM (active). For the same compound, the IC50 [13] was 15.6 µM (active).
With `Oc1ccc(/C=N/NP(=S)(c2ccccc2)c2ccccc2)c(O)c1O` the IC50 [14] was > 100 µM (active), the IC50 [15] was > 100 µM (inactive) and the IC50 [16] was 65.3 µM (active). The IC50 [17] was 25.3 µM (inconclusive), the EC50 [18] was > 150 µM (inactive) and the EC50 [19] was > 38 µM (not active).
